Reference: US4605669A, “Lipoxygenase inhibiting naphthohydroxamic acids” (Abbott Laboratories, priority 1985, dated 1986)
Like-named read-outs stand apart in the source and are kept apart here.

Tests used:
Format in all cases: biochemical
5-lipoxygenase = biological target: T1, 5-lipoxygenase (Rattus norvegicus, UniProt P12527); assay: 5-Lipoxygenase IC50 determination (20,000×G supernatant of homogenized RBL-1 cells, radiolabeled arachidonic acid); conditions: 20,000×G supernatant from homogenized RBL-1 cells
T1 construct: homogenized RBL-1 cells; endogenous in cells; host or cells: RBL-1 cells (20,000×G supernatant of homogenate)
T1 sequence (P12527 1-673): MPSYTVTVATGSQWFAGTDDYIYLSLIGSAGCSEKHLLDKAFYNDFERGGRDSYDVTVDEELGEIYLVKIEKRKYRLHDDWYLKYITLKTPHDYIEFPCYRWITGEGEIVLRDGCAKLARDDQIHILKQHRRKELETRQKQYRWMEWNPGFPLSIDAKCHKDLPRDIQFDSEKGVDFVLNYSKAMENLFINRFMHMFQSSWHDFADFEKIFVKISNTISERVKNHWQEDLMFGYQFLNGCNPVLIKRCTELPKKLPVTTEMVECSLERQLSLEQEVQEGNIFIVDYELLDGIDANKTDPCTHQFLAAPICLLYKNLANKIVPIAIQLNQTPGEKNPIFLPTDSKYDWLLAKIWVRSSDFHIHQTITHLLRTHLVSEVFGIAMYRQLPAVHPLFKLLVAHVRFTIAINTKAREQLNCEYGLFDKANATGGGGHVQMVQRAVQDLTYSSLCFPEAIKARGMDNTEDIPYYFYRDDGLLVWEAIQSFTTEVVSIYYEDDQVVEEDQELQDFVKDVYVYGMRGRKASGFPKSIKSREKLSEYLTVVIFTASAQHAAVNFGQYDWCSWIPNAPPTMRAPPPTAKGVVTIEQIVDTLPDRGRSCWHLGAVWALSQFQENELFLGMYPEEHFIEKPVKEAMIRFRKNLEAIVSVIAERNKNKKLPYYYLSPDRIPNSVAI
Procedure: (§1) Reactions were initiated by the addition of radiolabeled arachidonic acid and terminated by acidification and ether extraction. Reaction products were separated from nonconverted substrate by thin layer chromatography and measured by liquid scintillatiton spectroscopy. Inhibition of 5-lipoxygenase activity was calculated as the ratio of the amounts of product formed in the presence and absence of inhibitor.

15-lipoxygenase = biological target: T2, 15-lipoxygenase (Glycine max, UniProt P08170); assay: Inhibition of 15-lipoxygenase obtained from soybean; conditions: for inhibition at 10 µM: read-out: % Inhibition at Indicated Concentration, 15-lipoxygenase, 10 uM; for inhibition at 100 µM: read-out: % Inhibition at Indicated Concentration, 15-lipoxygenase, 100 uM
T2 construct: 15-lipoxygenase obtained from soybean; from tissue; host or cells: soybean
T2 sequence (P08170 1-839): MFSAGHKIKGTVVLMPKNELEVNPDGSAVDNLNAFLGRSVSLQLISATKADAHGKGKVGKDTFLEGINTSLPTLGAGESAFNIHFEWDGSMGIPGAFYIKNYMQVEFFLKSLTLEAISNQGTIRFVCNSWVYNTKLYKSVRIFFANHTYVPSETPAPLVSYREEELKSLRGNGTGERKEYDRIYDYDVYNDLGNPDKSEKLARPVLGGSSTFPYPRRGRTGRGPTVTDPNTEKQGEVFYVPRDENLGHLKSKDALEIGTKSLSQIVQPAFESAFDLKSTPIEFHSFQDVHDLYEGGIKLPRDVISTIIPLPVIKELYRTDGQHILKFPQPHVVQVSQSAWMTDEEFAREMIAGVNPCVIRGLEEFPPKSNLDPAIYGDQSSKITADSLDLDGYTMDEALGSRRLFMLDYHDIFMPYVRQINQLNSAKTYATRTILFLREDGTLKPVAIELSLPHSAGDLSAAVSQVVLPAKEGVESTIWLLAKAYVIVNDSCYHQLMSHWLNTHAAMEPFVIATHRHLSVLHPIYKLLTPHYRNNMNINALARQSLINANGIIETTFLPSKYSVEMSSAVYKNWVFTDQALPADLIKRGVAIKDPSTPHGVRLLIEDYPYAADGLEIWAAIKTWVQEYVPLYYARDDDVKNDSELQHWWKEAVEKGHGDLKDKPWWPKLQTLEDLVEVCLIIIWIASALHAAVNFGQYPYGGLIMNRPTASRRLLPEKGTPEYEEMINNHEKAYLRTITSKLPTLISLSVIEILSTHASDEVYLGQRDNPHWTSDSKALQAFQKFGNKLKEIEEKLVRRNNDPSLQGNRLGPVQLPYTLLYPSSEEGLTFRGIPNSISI
Procedure: as §1, with “The compounds of this invention are potent inhibitors of 5-, 12- and 15-lipoxygenase. An assay to determine 5-lipoxygenase activity was performed in incubations containing various concentrations of the test compound and the 20,000×G supernatant from 7.5×10^6 homogenized RBL-1 cells. Reactions” for “Reactions”
(§2) The inhibitory activities of the compounds of this invention against 12- and 15-lipoxygenase can be determined in the foregoing assay in which 12-lipoxygenase obtained from human platelets, or 15-lipoxygenase obtained from soybean, is substituted for the 5-lipoxygenase-containing cell supernatant fraction.

12-lipoxygenase = biological target: T3, 12-lipoxygenase (Homo sapiens, UniProt P18054); assay: Inhibition of 12-lipoxygenase obtained from human platelets; conditions: human platelet 12-lipoxygenase
T3 construct: 12-lipoxygenase obtained from human platelets; from tissue; host or cells: human platelets
T3 sequence (P18054 1-663): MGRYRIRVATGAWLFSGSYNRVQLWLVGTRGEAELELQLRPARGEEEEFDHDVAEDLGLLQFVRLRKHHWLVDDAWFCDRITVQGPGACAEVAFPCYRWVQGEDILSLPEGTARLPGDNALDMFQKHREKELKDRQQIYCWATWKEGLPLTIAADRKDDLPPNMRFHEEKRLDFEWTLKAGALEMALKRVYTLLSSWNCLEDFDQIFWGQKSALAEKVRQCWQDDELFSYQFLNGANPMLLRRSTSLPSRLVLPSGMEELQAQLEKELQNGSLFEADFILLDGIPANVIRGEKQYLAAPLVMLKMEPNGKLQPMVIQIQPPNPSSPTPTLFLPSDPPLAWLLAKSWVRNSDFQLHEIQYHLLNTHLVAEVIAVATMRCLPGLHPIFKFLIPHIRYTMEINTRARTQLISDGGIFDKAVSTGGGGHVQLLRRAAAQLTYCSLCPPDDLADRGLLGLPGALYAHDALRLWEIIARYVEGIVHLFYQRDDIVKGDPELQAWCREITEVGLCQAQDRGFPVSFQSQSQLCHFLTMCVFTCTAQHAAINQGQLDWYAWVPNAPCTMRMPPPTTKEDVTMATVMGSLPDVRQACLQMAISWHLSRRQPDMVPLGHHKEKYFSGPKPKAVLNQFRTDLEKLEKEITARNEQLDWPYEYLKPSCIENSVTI
Procedure: as §1, with “The compounds of this invention are potent inhibitors of 5-, 12- and 15-lipoxygenase. An assay to determine 5-lipoxygenase activity was performed in incubations containing various concentrations of the test compound and the 20,000×G supernatant from 7.5×10^6 homogenized RBL-1 cells. Reactions” for “Reactions”
as §2

[1] = 100 uM, soybean 15-lipoxygenase

6-(1-non-2-enoxy)-2-naphthohydroxamic acid [Example 8]
IC50 (5-lipoxygenase): 2.9 µM | % Inhibition at Indicated Concentration, 15-lipoxygenase, 10 uM (15-lipoxygenase; 10 uM, soybean 15-lipoxygenase): 10% | % Inhibition at Indicated Concentration, 15-lipoxygenase, 100 uM (15-lipoxygenase; [1]): 70% | % Inhibition at Indicated Concentration, 12-lipoxygenase, 10 uM (12-lipoxygenase; 10 uM): 74% | % Inhibition at Indicated Concentration, 12-lipoxygenase, 100 uM (12-lipoxygenase; 100 uM): 77%

CCCCCCCCCOc1ccc2cc(C(=O)NO)ccc2c1 [Example 1, 6-(1-nonoxy)-2-naphthohydroxamic acid]
IC50 (5-lipoxygenase): 20 µM

O=C(NO)c1ccc2cc(OCc3ccccc3)ccc2c1 [Example 9, 6-(benzyloxy)-2-naphthohydroxamic acid]
IC50 (5-lipoxygenase): 30 µM

CCCCCCCCOc1ccc2cc(C(=O)NO)ccc2c1 [Example 6, 6-(1-octoxy)-2-naphthohydroxamic acid]
IC50 (5-lipoxygenase): 6.5 µM | inhibition at 10 µM (12-lipoxygenase; 10 uM, read-out: % Inhibition at Indicated Concentration, 12-lipoxygenase, 10 uM): 68% | inhibition at 100 µM (12-lipoxygenase; 100 uM, read-out: % Inhibition at Indicated Concentration, 12-lipoxygenase, 100 uM): 71%

C=CCOc1ccc2cc(C(=O)NO)ccc2c1 [Example 7, 6-(1-prop-2-enoxy)-2-naphthohydroxamic acid]
IC50 (5-lipoxygenase): 4.6 µM

COc1ccc2cc(C(=O)NO)ccc2c1 [Example 2, 6-Methoxy-2-naphthohydroxamic acid]
IC50 (5-lipoxygenase): 8 µM | inhibition at 10 µM (15-lipoxygenase): 23% | inhibition at 100 µM (15-lipoxygenase): 44%

CCCCOc1ccc2cc(C(=O)N(C)O)ccc2c1 [Example 4, N-methyl-6-(1-butoxy)-2-naphthohydroxamic acid]
IC50 (5-lipoxygenase): 0.41 µM | inhibition at 10 µM (15-lipoxygenase; 10 uM, soybean 15-lipoxygenase): 29% | inhibition at 100 µM (15-lipoxygenase; [1]): 74%

CCCCCCCOc1ccc2cc(C(=O)NO)ccc2c1 [Example 5, 6-(1-heptoxy)-2-naphthohydroxamic acid]
IC50 (5-lipoxygenase): 7.1 µM

CCCCOc1ccc2cc(C(=O)NO)ccc2c1 [Example 3, 6-(1-butoxy)-2-naphthohydroxamic acid]
IC50 (5-lipoxygenase): 2 µM | inhibition at 10 µM (15-lipoxygenase; 10 uM, soybean 15-lipoxygenase): 45% | inhibition at 100 µM (15-lipoxygenase; [1]): 51%
